Series [1] in a line: Solubility in ethanol-based HFA 134a pMDI formulations. It counts as physicochemical.
Series [2] is described as follows: Preclinical pulmonary administration of sumatriptan, irritancy to the airways. It counts as in vivo.
The conditions of series [3]: intranasal route (Duquesnoy et al 1998); cited from earlier work.

Here are results for two compounds from patent US20110077272A1, “PULMONARY FORMULATIONS OF TRIPTANS” (Vectura Limited, priority 2008, published 2011).

For the compound `CNS(=O)(=O)Cc1ccc2[nH]cc(CCN(C)C)c2c1` [sumatriptan succinate], in series [1], the solubility result is “low solubility”.

For `CNS(=O)(=O)Cc1ccc2[nH]cc(CCN(C)C)c2c1` [sumatriptan], the respiratory changes result in series [2] (1.9 mg/kg) is “not of degenerative nature”; in series [2] (9 mg/kg), “degeneration occurred”. Besides, the “coefficient of variation for Tmax” value in series [3] is 62.8%.
